Experimental data reported in patent publication US7611696B2, “Sunscreen compositions as well as dihydropyridines and dihydropyranes” (DSM IP Assets B.V., priority 2002, dated 2009).

Columns and labels:
[1] = UV absorption (λmax and ε) of the prepared UV-A screening compounds; type: physicochemical; details: UV absorption maximum; solvent not stated

UV: λmax [1] [nm]	melting point [°C]	Compound
370		CCCCN1C(C)=CC(=C(C#N)C#N)C=C1C [1-N-butyl-4-dicyanomethylene-2,6-dimethyl-1,4-dihydropyridine]
366	64 to 65	CCC1=C(C)C(=C(C#N)C#N)C(C)=C(CC)O1 [Example 3, 2-(2,6-diethyl-3,5-dimethylpyran-4-ylidene)malononitrile]
364		CCCC1=C(CC)C(=C(C#N)C#N)C(CC)=C(CCC)O1 [Example 4, 2-(3,5-diethyl-2,6-dipropylpyran-4-ylidene)malononitrile]
372	187	CCCCC(CC)CN1C(C)=CC(=C(C#N)C#N)C=C1C (stereo not shown) [Example 5, 1-N-(2-ethylhexyl)-4-dicyanomethylene-2,6-dimethyl-1,4-dihydropyridine]

The next lines start with the compound.

Compound	UV: λmax [1] [nm]	melting point [°C]
CC1=CC(=C(C#N)C#N)C=C(C)N1CCC(C)CC(C)(C)C (stereo not shown) [1-N-[3,5,5-trimethylhexyl]-4-dicyanomethylene-2,6-dimethyl-1,4-dihydropyridine]	372	
CCCCC(CC)COCCCN1C(C)=CC(=C(C#N)C#N)C=C1C (stereo not shown) [1-N-[3-(2-ethylhexyloxy)propyl]-4-dicyanomethylene-2,6-dimethyl-1,4-dihydropyridine]	370	
CCCCCCCCCCCCN1C(C)=CC(=C(C#N)C#N)C=C1C [1-N-dodecyl-4-dicyanomethylene-2,6-dimethyl-1,4-dihydropyridine]	370	
CC1=CC(=C(C#N)C#N)C=C(C)N1C [1-N-methyl-4-dicyanomethylene-2,6-dimethyl-1,4-dihydropyridine]	368	> 250
CCOC(=O)C(C#N)=C1C=C(C)OC(C)=C1 [Example 1, ethyl (2,6-dimethyl-pyran-4-ylidene) cyanoacetate]	348	
CCCCC(CC)COC(=O)C(C#N)=C1C=C(C)OC(C)=C1 (stereo not shown) [Example 2, 2-ethylhexyl (2,6-dimethyl-pyran-4-ylidene) cyanoacetate]	352	
CCCCC(CC)COC(=O)C(C#N)=C1C=C(C)N(CCCC)C(C)=C1 (stereo not shown) [Example 7, 2-ethylhexyl (1-N-butyl-2,6-dimethyl-1H-pyridin-4-ylidene)cyanoacetate]	374	69 to 70
CCCCC(CC)COCCCN1C(C)=CC(=C(C#N)C(=O)OCC(CC)CCCC)C=C1C (stereo not shown) [Example 8, 2-ethylhexyl (1-N-[3-(2-ethylhexyloxy)propyl]-2,6-di-methyl-1H-pyridin-4ylidene)cyanoacetate]	366	69 to 70
CC1=CC(=C(C#N)C#N)C=C(C)N1CCCOCCOCCOCCCN1C(C)=CC(=C(C#N)C#N)C=C1C [Example 9, 2-{1-[3-(2-{2-[3-(4-dicyanomethylene-2,6-dimethyl-4H-pyridin-1-yl)-propoxy]-ethoxy}-ethoxy)-propyl]-2,6-dimethyl-1H-pyridin-4-ylidene}-malononitrile]	372	138 to 139
